The values that follow come from PMC8763382, “2-Sulfonylpyrimidines as Privileged Warheads for the Development of S. aureus Sortase A Inhibitors” (Frontiers in Molecular Biosciences, 2022).

One data set addresses T1, S. aureus SrtA (Staphylococcus aureus, UniProt Q2FV99).
T1 construct: His tag (inferred from IMAC on a HisTrap column); made in house; host or cells: E. coli BL21 Gold (DE3)
The data set is described as follows: fluorometric enzyme assay of SrtA transpeptidation (Abz-LPETG-Dap(Dnp)-OH substrate). It is filed as biochemical. Conditions: for k inact: maximum inactivation rate; for k inact / k 2nd / KI (inactivation): Tris pH 7.50, n. i. = <20% inhibition at 100 µM; for k 2nd: second-order rate of inhibition; for KI (inactivation): read-out: KI, dissociation constant of the reversible enzyme-inhibitor complex; for SrtA inhibition (in words): fluorometric enzyme assay, inhibitor concentration 100 µM. The protocol: To evaluate the inhibition potency of the parent sulfonylpyrimidine 4, this compound was tested by means of a fluorometric enzyme assay with recombinantly expressed S. aureus SrtA ([Schmohl et al., 2017b]) and Abz-LPETG-Dap (Dnp)-OH as substrate. […] To verify the irreversible mode of inhibition, we determined the maximum inactivation rate k inact, the dissociation constant of the reversible enzyme-inhibitor complex KI, and the second-order rate of inhibition k 2nd. For compound 4, a k inact = 0.00065 s^−1 was found, which is very low compared to other covalent SrtA inhibitors ([Chan et al., 2017]; [Barthels et al., 2020]; [Jaudzems et al., 2020]).
Inhibition assays of S. aureus SrtA transpeptidation reactions were performed as described previously ([Barthels et al., 2020]). Briefly, the recombinantly expressed SrtA (final concentration: 1 µM) was incubated in assay buffer (50 mM Tris, 150 mM NaCl, 5 mM CaCl2, pH 7.50) with 25 µM of the FRET-pair substrate Abz-LPETG-Dap (Dnp)-OH (Genscript, Piscataway, New Jersey) and 0.5 mM tetraglycine (Sigma Aldrich, St. Louis, Missouri). Inhibitors were added from DMSO stocks. Reactions were initiated by addition of SrtA and monitored for 30 min at 30°C in an Infinite M200 Pro plate reader with λex 320 nm/λem 430 nm (Tecan, Männedorf, Switzerland). Three technical replicates were carried out for each inhibitor in black flat-bottom 96-well plates (Greiner bio-one, Kremsmünster, Austria). The enzyme kinetics of irreversible SrtA inactivation were analyzed as described previously ([Barthels et al., 2020]).

A word on the melting point: it is the temperature, or range, at which the solid turns liquid. A word on the Ki: it is a dissociation constant, usually derived from enzyme kinetics or from competition with a known ligand.

Several values for one entry are separate records, joined by “and”; a condition that tells them apart may be missing. Equal entries are not always repeated. Bounds are passed on as bounds.

T1 sequence (Q2FV99 60-206): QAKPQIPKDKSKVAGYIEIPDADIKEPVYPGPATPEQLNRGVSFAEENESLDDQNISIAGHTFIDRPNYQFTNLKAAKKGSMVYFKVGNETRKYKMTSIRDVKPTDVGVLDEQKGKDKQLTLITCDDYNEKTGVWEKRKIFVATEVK

For the compound `CS(=O)(=O)c1ncc(Cl)c(C(=O)N(Cc2ccccc2)Cc2ccccc2)n1` [Compound 5k], the melting point worked out at 68 °C. Moreover, on S. aureus SrtA, the k inact result was “n. i” and the “k 2nd” value is recorded as “n. i”.

`CS(=O)(=O)c1ncc(Cl)c(C(=O)Nc2ccc(-c3ccc(C#N)cc3)cc2)n1` [Compound 5d] registered a melting point of 267 °C. In addition, on S. aureus SrtA, the k inact result is reported as “n. i” and the “k 2nd” value is reported as “n. i”.

For `CS(=O)(=O)c1ncc(Cl)c(C(=O)Nc2cccc(OC3CCCCC3)c2)n1` [Compound 6c], the melting point was 144 °C. For the same compound, at S. aureus SrtA, the k inact is 0.00864 ± 0.00092 s⁻¹; the KI (inactivation) worked out at 78.8 ± 9.92 µM; the “k 2nd” value is 6,593 M^−1min^−1 and 6,593 ± 243 M^−1min^−1.

In turn, `CS(=O)(=O)c1ncc(Cl)c(C(=O)Nc2ccc3c(c2)oc2ccccc23)n1` [Compound 6l] had a melting point of 250 °C. Moreover, on S. aureus SrtA, the “SrtA inhibition (in words)” value is “complete loss of inhibition”, the k inact result is reported as “n. i” and the “k 2nd” value is listed as “n. i”.

For `CS(=O)(=O)c1ncc(Cl)c(C(=O)NCC(=O)Nc2cccc(Oc3ccccc3)c2)n1` [Compound 5b], the melting point stood at 91 °C. At S. aureus SrtA, the k inact is 0.00082 ± 0.00004 s⁻¹; the KI (inactivation) was found to be 42.4 ± 4.62 µM; the “k 2nd” value was 1,175 M^−1min^−1 and 1,175 ± 67 M^−1min^−1.

For `CS(=O)(=O)c1ncc(Cl)c(C(=O)Nc2cccc(C(=O)Nc3ccccc3)c2)n1` [Compound 6m], the melting point is 237 °C. Further, at S. aureus SrtA, the “SrtA inhibition (in words)” value is listed as “inhibition was completely abolished”, the k inact entry was “n. i” and the “k 2nd” value is reported as “n. i”.

On to `CS(=O)(=O)c1ncc(Cl)c(C(=O)NCCSc2ccccc2)n1` [Compound 6n], for which, on S. aureus SrtA, the “SrtA inhibition (in words)” value is “complete loss of inhibition”, the k inact result is reported as “n. i” and the “k 2nd” value is recorded as “n. i”.

With `CS(=O)(=O)c1ncc(Cl)c(C(=O)Nc2cccc(-c3ccccc3)c2)n1` [Compound 6f], the melting point came to 164 °C. At S. aureus SrtA, the Ki was > 100 µM; the “k 2nd” value was 588 M⁻¹ min⁻¹ and 588 ± 48 M⁻¹ min⁻¹.

As for `CS(=O)(=O)c1ncc(Cl)c(C(=O)Nc2ccc(Oc3ccccc3)cc2)n1` [Compound 6h], the melting point turned out to be 195 °C. In addition, on S. aureus SrtA, the “SrtA inhibition (in words)” value is recorded as “complete abolition of inhibition”, the k inact entry was “n. i” and the “k 2nd” value is reported as “n. i”.

Turning to `CCC(CC)NC(=O)c1nc(S(C)(=O)=O)ncc1Cl` [Compound 5i], the melting point came out at 146 °C. In addition, at S. aureus SrtA, the k inact result is “n. i” and the “k 2nd” value is “n. i”.

In the case of `COc1cccc(NC(=O)c2nc(S(C)(=O)=O)ncc2Cl)c1` [Compound 6e], at S. aureus SrtA, the inhibitory constant (Ki) is > 100 µM; the “k 2nd” value was 882 M⁻¹ min⁻¹ and 882 ± 43 M⁻¹ min⁻¹.

`CS(=O)(=O)c1ncc(Cl)c(C(=O)Nc2cccc(Sc3ccccc3)c2)n1` [Compound 6b]: the melting point is 135 °C. Moreover, on S. aureus SrtA, the k inact is 0.00578 ± 0.00033 s⁻¹, the KI (inactivation) turned out to be 47.5 ± 4.62 µM and the “k 2nd” value was 7,305 ± 294 M^−1min^−1.

`CS(=O)(=O)c1ncc(Cl)c(C(=O)Nc2cccc(OCc3ccccc3)c2)n1` [Compound 6k] had a melting point of 154 °C. Also, on S. aureus SrtA, the “SrtA inhibition (in words)” value is on record as “inhibition was completely abolished”, the k inact result is on record as “n. i” and the “k 2nd” value is on record as “n. i”.

On to `CS(=O)(=O)c1ncc(Cl)c(C(=O)N2CCc3ccccc3C2)n1` [Compound 5h], for which the melting point came to 218 °C. Further, at S. aureus SrtA, the k inact result is on record as “n. i” and the “k 2nd” value was “n. i”.

For the compound `Cc1ccc(-c2csc(NC(=O)c3nc(S(C)(=O)=O)ncc3Cl)n2)cc1` [Compound 5g], the melting point worked out at 280 °C. Besides, at S. aureus SrtA, the k inact entry is listed as “n. i” and the “k 2nd” value is “n. i”.
